Laboratory results: US11179450B2, “Long chain antigen containing interepitope sequence that promotes antigen presentation to T cells” (MIE UNIVERSITY, priority 2013, dated 2021)

Key:
[1] = system: F4/80+ cells (macrophages); experiment: In vitro uptake of FAM-labeled long chain peptide antigens by antigen-presenting cells (macrophages); type: cell-based; conditions: FIG. 8, complexed with CHP, 10 μg/mL, mouse spleen cells, 60 minutes, in comparison to G6 and P6
Description: Long chain peptide antigens MEN, all containing three types of mouse CD8+ T cell epitope sequences (MA p265 (Sequence No. 27), NY p81 (Sequence No. 29), and mERK2 9m (Sequence No. 28)), were synthesized. The interepitope sequences between the respective epitopes were respectively six consecutive tyrosines (Y6), six consecutive glycines (G6), or six consecutive prolines (P6) (Sequence Nos. 1-3). Each long chain peptide antigen, labeled with the fluorescent dye FAM, was complexed with CHP and administered in vitro to mouse dendritic cells and mouse macrophages. After 60 minutes, the fluorescence uptakes into the respective cells were measured by flow cytometry with the P5 fraction in the figure being deemed to correspond to the dendritic cells and the P6 fraction in the figure being deemed to correspond to the macrophages.
In vitro uptake of the long chain peptide antigens by antigen-presenting cells was measured as follows. Each long chain peptide labeled with a fluorescent dye was complexed with CHP by the method described above. Spleen cells separated from a normal mouse were added at 1×10^6 cells/0.5 mL/well to a 24-well plate. […] The uptake of the fluorescence-labeled long chain peptide antigens by CD11c^+ cells (dendritic cells) and F4/80^+ cells (macrophages) were observed using flow cytometry.

[2] = system: mERK2 9m specific CD8+ T cells; experiment: Specific CD8+ T cell induction in mice, intracellular cytokine staining (mERK2 9m epitope); type: in vivo, BALB/c mice
Protocol: (§1) Long chain peptide antigens MEN, all containing three types of mouse CD8+ T cell epitope sequences (MA p265 (Sequence No. 27), NY p81 (Sequence No. 29), and mERK2 9m (Sequence No. 28)), were synthesized. The interepitope sequences between the respective epitopes were one to six consecutive tyrosines (Sequence Nos. 1 and 9-12). Vaccines containing the respective long chain peptide antigens were administered to mice in the same manner as in FIG. 1 and the frequencies of CD8+ T cells specific to the respective epitope sequences were measured by the intracellular cytokine staining method.
Long chain peptide antigens MEN, all containing three types of mouse CD8+ T cell epitope sequences (MA p265 (Sequence No. 27), NY p81 (Sequence No. 29), and mERK2 9m (Sequence No. 28)), were synthesized. The interepitope sequences between the respective epitopes were five to ten consecutive tyrosines (Sequence Nos. 1 and 13-15). Vaccines containing the respective long chain peptide antigens were administered to mice in the same manner as in FIG. 1 and the frequencies of CD8+ T cells specific to the respective epitope sequences were measured by the intracellular cytokine staining method.
Each CHP/long chain peptide complex as the vaccine and the CpG oligo DNA as the adjuvant were administered at the same time to a mouse. Administration was performed by subcutaneous injection on the back of the mouse. As the dose, the CHP/long chain peptide complex was administered at 0.05 to 0.1 mg equivalent of long chain peptide per administration. The CpG oligo DNA was administered at 0.05 mg per administration. One week after the final administration, spleen cells were separated by the following procedure from each vaccine-administered mouse. The spleen was isolated from the mouse and removed of blood by rinsing with RPMI1640 medium. After the spleen was triturated using a glass slide, the released cells were collected in RPMI1640 medium. After centrifuging (400×g, 5 minutes, 4° C.), the supernatant was removed and the cells were treated for 1 minute by adding 2 mL of ACK solution. […]

[3] = system: NY p81 specific CD8+ T cells; experiment: Specific CD8+ T cell induction in mice, intracellular cytokine staining (NY p81 epitope); type: in vivo, BALB/c mice; conditions: FIG. 6; comparing one to six tyrosines
Description: A long chain peptide antigen ESO1 LP (native type) (Sequence No. 16) and a long chain peptide antigen ESO1 LP (Y6) (Sequence No. 17), both containing a mouse CD8+ T cell epitope sequence (NY p81 or NY p82) and a mouse CD4+ T cell epitope sequence (NY p91) that are derived from human NY-ESO-1 antigen, were synthesized. As the interepitope sequence between epitopes, the native amino acid sequence of NY-ESO-1 was retained in the ESO1 LP (native type) and the sequence of six consecutive tyrosines (Y6) was used in the ESO1 LP (Y6). Vaccines containing the respective long chain peptide antigens were administered to mice in the same manner as in FIG. 1 and the frequencies of CD8+ T cells and CD4+ T cells specific to the respective epitope sequences were measured by the intracellular cytokine staining method.
as §1
Long chain peptide antigens MEN, all containing three types of mouse CD8+ T cell epitope sequences (MA p265 (Sequence No. 27), NY p81 (Sequence No. 29), and mERK2 9m (Sequence No. 28)), were synthesized. The interepitope sequences between the respective epitopes were five to ten consecutive tyrosines (Sequence Nos. 1 and 13-15). Vaccines containing the respective long chain peptide antigens were administered to mice in the same manner as in FIG. 1 and the frequencies of CD8+ T cells specific to the respective epitope sequences were measured by the intracellular cytokine staining method. […]

SNPARYEFLYYYYYYQYIHSANVLYYYYYYRGPESRLL (Long chain peptide antigen, containing three types of mouse CD8+ T cell epitope sequences (MA p265, NY p81, and mERK2 9m)) [MEN(Y6)]
fluorescence uptake into macrophages [1]: significantly higher
induction of specific CD8+ T cells, mERK2 9m (second epitope) ([2]; FIG. 6, comparing one to six tyrosines): observed to some degree
induction of specific CD8+ T cells, mERK2 9m (second epitope) ([2]; FIG. 7, comparing five to ten tyrosines): highest
induction of specific CD8+ T cells, NY p81 (third epitope) [3]: highest
